This is an account of results in patent publication US20180271930A1, “METHOD FOR RAISING POULTRY” (priority 2015, published 2018).

Test [1] is described as follows: Examination 1: body weight of initial-phase chicks fed additive-containing feed for 3 days. Format: in vivo, broiler chicks of the Chunky breed (Ross 308). Conditions: n = 6. On the procedure:
Newly hatched broiler chicks of the Chunky breed (Ross 308, Ross Breeders Ltd.) were tested. […] Blood and skeletal muscles were collected to observe gene expression levels of MyoD, myogenin, myostatin, and IGF-I (insulin-like growth factor-I). An ammonium salt was used as oxidized glutathione (GSSG). The GSSG contained 95.6% by mass of oxidized glutathione, and the content of reduced glutathione mixed therein was 0.1% by mass or less. […] The amount of GSSG used herein was determined in terms of the amount of free oxidized glutathione. In all the following Examinations, the amounts of GSSG are expressed in terms of the amount of free oxidized glutathione.

A short description of test [2]: Examination 2-1: breeding performance at 21 and 28 days old after GSSG prestarter feed. Format: in vivo, broiler chicks. The settings on record: 0.01% by mass GSSG feed for first 72 h, n = 6. On the procedure:
Newly hatched broiler chicks (Ross Breeders Ltd.) were fed with a feed composition for 3 days. The feed composition contained GSSG at a level of 0.01% by mass which was thought to be appropriate based on Examination 1. […] Two groups, which were a control group and a GSSG addition group (0.01% by mass), were set. In each group, 6 males and 6 females were tested. Chicks received at 0 day old were fed with a test feed composition (initial-phase feed composition) during 72 hours after the receipt. […] Their body weights, breast meat weights, leg meat weights, and liver weights were measured. As the initial-phase feed composition, the feed composition comprising 0.01% by mass of GSSG used in Examination 1 was used for the GSSG addition group, and the feed composition (ME3,100 kcal/kg, CP21) free of GSSG used in Examination 1 was used for the control group. […] An ammonium salt was used as oxidized glutathione (GSSG). The GSSG contained 95.6% by mass of oxidized glutathione, and the content of reduced glutathione mixed therein was 0.1% by mass or less.

Test [3] in a line: Examination 2-2: breeding performance at 40 days old after GSSG prestarter feed. Format: in vivo, broiler chicks (Ross 308). Conditions: 0.01% by mass GSSG feed for first 72 h, n = 12. As for the experimental part: Thereafter, the composition was replaced by an ordinary feed composition of the same type and the chicks were raised until they became 40 days old. […] Two groups, which were a control group and a GSSG addition group (0.01% by mass) were set. In each group, 6 males and 6 females were tested. Chicks received at 0 day old were fed with a test feed composition (initial-phase feed composition) during 72 hours after the receipt. […] The body weight was measured, and the meat yield and feed conversion ratio were determined. As the initial-phase feed composition, the 0.01% by mass GSSG-containing feed composition used in Examination 1 was used in the GSSG addition group, and the feed composition (ME3,100 kcal/kg, CP21) free of GSSG used in Examination 1 was used for the control group. […] An ammonium salt was used as oxidized glutathione (GSSG). The GSSG contained 95.6% by mass of oxidized glutathione, and the content of reduced glutathione mixed therein was 0.1% by mass or less. […] The term “meat yield” refers to a proportion of meat excluding bones and fats with respect to the body weight. The meat yield can be determining by performing slaughtering and butchering, collecting meat alone, and weighing the collected meat.

Test [4] can be described thus: Examination 4: body weight of chicks raised until 35 days old after feeding GSSG or GSH for 3 days. Format: in vivo, broiler chicks. Conditions: 0.01% by mass additive in feed for 3 days; n = 6, average ± standard deviation. As for the experimental part:
Newly hatched broiler chicks (Ross Breeders Ltd.) were tested. A control group (=additive-free group), a GSSG addition group (0.01% by mass), and a GSH addition group (0.01% by mass) each consisting of 5 males and 5 females were set and fed with a feed composition for 3 days. […] At this timing, 2 males and 2 females in each group were slaughtered to collect blood and skeletal muscles. The gene expression levels of the MyoD family (myogenin, myostatin, and Pax7) were observed. […] Statistics were analyzed using a mixed model in consideration of a gender difference and an interaction between males and females. An ammonium salt was used as oxidized glutathione (GSSG). The GSSG contained 95.6% by mass of oxidized glutathione, and the content of reduced glutathione mixed therein was 0.1% by mass or less. […] A feed composition, for which the amount of oxidized glutathione (GSSG) added was set to 0.01% by mass, is described in Examination 1. A feed composition, for which the amount of reduced glutathione (GSH) added was set to 0.01% by mass, was prepared by adding 0.01% by mass of GSH, instead of 0.01% by mass of GSSG, to the GSSG-containing feed composition described in detail in Examination 1.

The subject of a further test is myogenin. As to the kind of experiment: Examination 4: myogenin gene expression in superficial pectoral muscle at 3 days old. Format: in vivo, broiler chicks. The settings on record: 0.01% by mass additive in feed for 3 days, FIG. 3A, n=4. On the procedure: FIGS. 3A to 3C illustrate graphs showing the expression of genes related to skeletal muscle cell differentiation in superficial pectoral muscles upon administration of each feed composition in Examination 4 (n=4). […] A relative value of the expression level of each factor is expressed as an average±standard deviation of values obtained by dividing the expression levels of each factor by the expression level of RPS9. Newly hatched broiler chicks (Ross Breeders Ltd.) were tested. A control group (=additive-free group), a GSSG addition group (0.01% by mass), and a GSH addition group (0.01% by mass) each consisting of 5 males and 5 females were set and fed with a feed composition for 3 days. […] At this timing, 2 males and 2 females in each group were slaughtered to collect blood and skeletal muscles. The gene expression levels of the MyoD family (myogenin, myostatin, and Pax7) were observed. […] Statistics were analyzed using a mixed model in consideration of a gender difference and an interaction between males and females. A method for determining gene expressions of the above factors in skeletal muscles is described above. An ammonium salt was used as oxidized glutathione (GSSG). The GSSG contained 95.6% by mass of oxidized glutathione, and the content of reduced glutathione mixed therein was 0.1% by mass or less. […]

With oxidized glutathione [GSSG], in test [1] (feed with 0.01% by mass GSSG for 3 days), the “Weight at 3 days old” value is 78.1 ± 4.0 g. In addition, the “Weight at 3 days old” value in test [1] (feed with 0.1% by mass GSSG for 3 days) is 72.8 ± 5.6 g. In test [2] (21 days old), this substance displayed a Breast meat of 118 ± 4 g, a Leg meat of 136 ± 6 g and a Weight of 933 ± 65 g. In test [2] (28 days old), this substance returned a Breast meat of 186 ± 15 g, a Leg meat of 206 ± 12 g and a Weight of 1500 ± 149 g. In test [3] (40 days old), this substance registered a Meat yield of 42.1 ± 1.1 % by mass and a Weight of 2214 ± 79 g. The “Feed conversion ratio (mass ratio)” value in test [3] (until 40 days old) came out at 1.52 ± 0.09. Besides, in test [4], the “Weight, 14 days old” value was 524.5 ± 37.0 g and the “Weight, 35 days old” value was determined as 2164 ± 178 g. In the test with myogenin, the “myogenin expression level vs control group” value is “significantly decreased”.
